Reference: patent US7501425B1, “Bicyclic pyrimidines and bicyclic 3,4-dihydropyprimidines as inhibitors of cellular proliferation” (Warner Lambert Company, priority 1999, dated 2009)
Structures can show the parent of a compound that is named as a salt.

melting point	SMILES
220 to 221 °C	O=C1NCc2cnc(Nc3ccc(N4CCCCC4CO)cc3)nc2N1C1CCCC1 (stereo not drawn) [Example 19, 1-Cyclopentyl-7-[4-(2-hydroxymethylpiperidin-1-yl)phenylamino]-3,4-dihydro-pyrimido[4,5-d]pyrimidin-2(1H)-one]
203 to 207 °C	CCN(CC)CCCCNc1ncc2c(n1)NC(=O)N(c1cc(OC)cc(OC)c1)C2 [Example 52, 7-(4-Diethylamino-butylamino)-3-(3,5-dimethoxy-phenyl)-3,4-dihydro-pyrimido[4,5-d]pyrimidin-2(1H)-one]
116.5 to 118.5 °C	CCNc1nc(SC)ncc1CNc1cc(OC)cc(OC)c1Cl [Example 62, {5-[(2-Chloro-3,5-dimethoxy-phenylamino)-methyl]-2-methylsulfanyl-pyrimidin-4-yl}-ethyl-amine]
254 to 277 °C (dec.)	O=C1NCc2cnc(Nc3ccc(N4CCCCC4)cc3)nc2N1C1CCCC1 [Example 10, 1-Cyclopentyl-7-[4-(piperidin-1-yl)phenylamino]-3,4-dihydro-pyrimido [4,5-d]pyrimidin-2(1H)-one]
> 200 °C (dec.)	O=C1NCc2cnc(Nc3ccc(N4CCCC(O)C4)cc3)nc2N1C1CCCC1 (stereo not drawn) [Example 16, 1-Cyclopentyl-7-[4-(3-hydroxypiperidin-1-yl)phenylamino]-3,4-dihydro-pyrimido[4,5-d]pyrimidin-2(1H)-one]
220 to 222 °C	COc1cc(OC)cc(N2Cc3cnc([S+](C)[O-])nc3NC2=O)c1 (stereo not drawn) [Example 51, 3-(3,5-Dimethoxy-phenyl)-7-methanesulfinyl-3,4-dihydro-pyrimido [4,5-d]pyrimidin-2(1H)-one]
> 100 °C (dec.)	CC(C)n1c(=O)ncc2cnc(Nc3ccc(N4CCC(N(C)C)CC4)cc3)nc21 [Example 41, 7-{4-[4-(Dimethylamino)piperidin-1-yl]phenylamino}-1-isopropyl-pyrimido[4,5-d]pyrimidin-2(1H)-one]
247 to 249 °C (dec.)	COc1ccc(Nc2ncc3c(n2)N(C2CCCC2)C(=O)NC3)cc1 [Example 9, 1-Cyclopentyl-7-(4-methoxyphenylamino)-3,4-dihydro-pyrimido[4,5-d]pyrimidin-2(1H)-one]
139 to 141 °C	CCN(CC)CCOc1ccc(Nc2ncc3c(=O)n(Cc4ccc(OC)cc4)c(=O)n(C(C)C)c3n2)cc1 [Example 73, 7-[4-(2-Diethylaminoethoxy)phenylamino]-1-isopropyl-3-(4-methoxybenzyl)-1H-pyrimido[4,5-d]pyrimidine-2,4-dione]
> 95 °C (dec.)	CCN(CC)CCOc1ccc(Nc2ncc3cnc(=O)n(C4CCCC4)c3n2)cc1C [Example 34, 1-Cyclopentyl-7-{3-methyl-4-[2-(diethylamino)ethoxy]-phenylamino}pyrimido[4,5-d]pyrimidin-2(1H)-one]
236 to 239 °C (dec.)	CN1CCN(c2ccc(Nc3ncc4c(n3)N(C3CCCC3)C(=O)NC4)cc2)CC1 [Example 11, 1-Cyclopentyl-7-[4-(4-methylpiperazin-1-yl)phenylamino]-3,4-dihydro-pyrimido[4,5-d]pyrimidin-2(1H)-one]
158 to 160 °C	C=CCn1c(=O)c2cnc(-n3ccnc3)nc2n(C(C)C)c1=O [Example 68, 3-Allyl-7-(imidazol-1-yl)-1-isopropyl-1H-pyrimido [4,5-d]pyrimidine-2,4-dione]
198 to 202 °C (dec.)	CN(C)C1CCN(c2ccc(Nc3ncc4cnc(=O)n(C)c4n3)cc2)CC1 [Example 46, 7-{4-[4-(Dimethylamino)piperidin-1-yl]phenylamino}-1-methyl-pyrimido[4,5-d]pyrimidin-2(1H)-one]
> 135 °C (dec.)	O=c1ncc2cnc(Nc3ccc(-n4cccn4)cc3)nc2n1C1CCCC1 [Example 36, 1-Cyclopentyl-7-[4-(pyrazol-1-yl)phenylamino]pyrimido[4,5-d]pyrimidin-2(1H)-one]
> 200 °C (dec.)	CC1CN(c2ccc(Nc3ncc4c(n3)N(C3CCCC3)C(=O)NC4)cc2)CC(C)N1 (stereo not drawn) [Example 18, 1-Cyclopentyl-7-[4-(3,5-dimethylpiperazin-1-yl)phenylamino]-3,4-dihydro-pyrimido[4,5-d]pyrimidin-2(1H)-one]
148 to 150 °C (dec.)	COc1ccc(Cn2c(=O)c3cnc(-n4ccnc4)nc3n(C(C)C)c2=O)cc1 [Example 69, 7-(Imidazol-1-yl)-1-isopropyl-3-(4-methoxybenzyl)-1H-pyrimido[4,5-d]pyrimidine-2,4-dione]
139 to 141 °C	CCN(CC)CCOc1ccc(Nc2ncc3c(n2)N(CC)C(=O)N(c2cc(OC)cc(OC)c2)C3)cc1 (as salt: salt) (hydrate or solvate) [Example 53a, 7-[4-(2-Diethylamino-ethoxy)-phenylamino]-3-(3,5-dimethoxy-phenyl)-1-ethyl-3,4-dihydro-pyrimido[4,5-d]pyrimidin-2(1H)-one]

melting point	SMILES
189 to 191 °C	CCN1C(=O)N(c2cc(OC)cc(OC)c2Cl)Cc2cnc(SC)nc21 [Example 63, 3-(2-Chloro-3,5-dimethoxy-phenyl)-1-ethyl-7-methylsulfanyl-3,4-dihydro-pyrimido[4,5-d]pyrimidin-2(1H)-one]
> 200 °C (dec.)	O=C1NCc2cnc(Nc3ccc(N4CCC(O)CC4)cc3)nc2N1C1CCCC1 [Example 15, 1-Cyclopentyl-7-[4-(4-hydroxypiperidin-1-yl)phenylamino]-3,4-dihydro-pyrimido [4,5-d]pyrimidin-2(1H)-one]
198 to 204 °C	COc1cc(OC)cc(N2Cc3cnc(SC)nc3N=C2N)c1 [Example 66, 3-(3,5-Dimethoxy-phenyl)-7-methylsulfanyl-3,4-dihydro-pyrimido [4,5-d]pyrimidin-2-ylamine]
218 to 219 °C (dec.)	CC(C)N1C(=O)NCc2cnc([S+](C)[O-])nc21 (stereo not drawn) [Example 6, 1-Isopropyl-7-methanesulfinyl-3,4-dihydro-pyrimido[4,5-d]pyrimidin-2(1H)-one]
> 230 °C	O=C1NCc2cnc(Nc3ccc(N4CCC(CCCO)CC4)cc3)nc2N1C1CCCC1 [Example 20, 1-Cyclopentyl-7-{4-[4-(3-hydroxypropyl)piperidin-1-yl]phenylamino}-3,4-dihydro-pyrimido[4,5-d]pyrimidin-2(1H)-one]
> 120 °C (dec.)	CC(C)N1C(=O)NCc2cnc(Nc3ccc(N4CCC(O)CC4)cc3)nc21 [Example 23, 7-[4-(4-Hydroxypiperidin-1-yl)phenylamino]-1-isopropyl-3,4-dihydro-pyrimido[4,5-d]pyrimidin-2(1H)-one]
> 185 °C (dec.)	O=c1ncc2cnc(Nc3ccc(N4CCC(O)CC4)cc3)nc2n1C1CCCC1 [Example 33, 1-Cyclopentyl-7-[4-(4-hydroxypiperidin-1-yl)phenylamino]pyrimido[4,5-d]pyrimidin-2(1H)-one]
83 to 85 °C	CCN(CC)CCCCNc1ncc2c(n1)N(CC)C(=O)N(c1cc(OC)cc(OC)c1)C2 (hydrate or solvate) [Example 53, 7-(4-Diethylamino-butylamino)-3-(3,5-dimethoxy-phenyl)-1-ethyl-3,4-dihydro-pyrimido[4,5-d]pyrimidin-2(1H)-one]
175 to 177 °C	CCN(CC)CCOc1ccc(Nc2ncc3c(n2)N(C2CCCC2)C(=O)NC3)cc1C [Example 13, 1-Cyclopentyl-7-{3-methyl-4-[2-(diethylamino)ethoxy]phenylamino}-3,4-dihydro-pyrimido[4,5-d]pyrimidin-2(1H)-one]
215 to 216 °C	COc1ccc(Cn2c(=O)c3cnc(Nc4ccc(N5CCN(C)CC5)cc4)nc3n(C(C)C)c2=O)cc1 [Example 71, 1-Isopropyl-3-(4-methoxybenzyl)-7-[4-(4-methylpiperazin-1-yl)phenylamino]-1H-pyrimido[4,5-d]pyrimidine-2,4-dione]
134 to 136 °C	CCN1C(=O)N(c2cc(OC)cc(OC)c2)Cc2cnc(SC)nc21 (hydrate or solvate) [Example 50a, 3-(3,5-Dimethoxy-phenyl)-1-ethyl-7-methylsulfanyl-3,4-dihydro-pyrimido[4,5-d]pyrimidin-2(1H)-one]
> 135 °C (dec.)	O=c1ncc2cnc(Nc3ccc(N4CCCC(O)C4)cc3)nc2n1C1CCCC1 (stereo not drawn) [Example 35, 1-Cyclopentyl-7-[4-(3-hydroxypiperidin-1-yl)phenylamino]pyrimido[4,5-d]-pyrimidin-2(1H)-one]
220 to 225 °C (dec.)	CN1CCN(c2ccc(Nc3ncc4cnc(=O)n(C5CCCC5)c4n3)cc2)CC1 [Example 32, 1-Cyclopentyl-7-[4-(4-methylpiperazin-1-yl)phenylamino]pyrimido-[4,5-d]pyrimidin-2(1H)-one]
235 to 236 °C (dec.)	C[S+]([O-])c1ncc2c(n1)N(C1CCCC1)C(=O)NC2 (stereo not drawn) [Example 5, 1-Cyclopentyl-7-methanesulfinyl-3,4-dihydro-pyrimido[4,5-d]pyrimidin-2(1H)-one]
100 to 105 °C	CCNc1nc(SC)ncc1C=Nc1cc(OC)cc(OC)c1 [Example 48a, {5-[(3,5-Dimethoxy-phenylimino)-methyl]-2-methylsulfanyl-pyrimidin-4-yl}-ethyl-amine]
> 140 °C (dec.)	O=c1ncc2cnc(Nc3ccc(N4CCC(CCN5CCOCC5)CC4)cc3)nc2n1C1CCCC1 [Example 39]

SMILES	melting point
CC(C)N1C(=O)NCc2cnc(Nc3ccc(-n4cccn4)cc3)nc21.O=C(O)C(F)(F)F [Example 25, 1-Isopropyl-7-[4-(pyrazol-1-yl)phenylamino]-3,4-dihydro-pyrimido[4,5-d]pyrimidin-2(1H)-one; compound with trifluoroacetic acid]	249 to 252 °C (dec.)
CN1C(=O)NCc2cnc(Nc3ccc(N4CCC(N(C)C)CC4)cc3)nc21.O=C(O)C(F)(F)F [Example 30, 7-{4-[4-(Dimethylamino)piperidin-1-yl]phenylamino}-1-methyl-3,4-dihydro-pyrimido[4,5-d]pyrimidin-2(1H)-one; compound with trifluoroacetic acid]	190 to 191 °C (dec.)
CC(C)N1C(=O)NCc2cnc(Nc3ccc(N4CCC(N(C)C)CC4)cc3)nc21.O=C(O)C(F)(F)F [Example 24, 7-{4-[4-(Dimethylamino)piperidin-1-yl]phenylamino}-1-isopropyl-3,4-dihydro-pyrimido[4,5-d]pyrimidin-2(1H)-one; compound with trifluoroacetic acid]	215 to 217 °C (dec.)
